In PMC7290210 (Infection, Genetics and Evolution, 2020):

How the values were obtained:
[1] = biological target: S-RBD-ACE2 protein complex (Homo sapiens, UniProt Q9BYF1); assay type: binding, SARS-CoV-2
human ACE2 = human ACE2 (Homo sapiens, UniProt Q9BYF1); experiment: Surface plasmon resonance assay, human ACE2 chip; assay type: binding; details: SPR, human ACE2 extracellular domain, pH 4.5, 25 °C
SARS-CoV2 S2 ECD = SARS-CoV2 S2 ECD (Severe acute respiratory syndrome coronavirus 2, UniProt P0DTC2); experiment: biochemical; assay type: binding, SARS-CoV-2
SARS-CoV-2 S1 + S2 ECD = SARS-CoV-2 S1 + S2 ECD (Severe acute respiratory syndrome coronavirus 2, UniProt P0DTC2); experiment: biochemical; assay type: binding

Chain of S-RBD-ACE2 protein complex (Q9BYF1 18-740, one chain of several): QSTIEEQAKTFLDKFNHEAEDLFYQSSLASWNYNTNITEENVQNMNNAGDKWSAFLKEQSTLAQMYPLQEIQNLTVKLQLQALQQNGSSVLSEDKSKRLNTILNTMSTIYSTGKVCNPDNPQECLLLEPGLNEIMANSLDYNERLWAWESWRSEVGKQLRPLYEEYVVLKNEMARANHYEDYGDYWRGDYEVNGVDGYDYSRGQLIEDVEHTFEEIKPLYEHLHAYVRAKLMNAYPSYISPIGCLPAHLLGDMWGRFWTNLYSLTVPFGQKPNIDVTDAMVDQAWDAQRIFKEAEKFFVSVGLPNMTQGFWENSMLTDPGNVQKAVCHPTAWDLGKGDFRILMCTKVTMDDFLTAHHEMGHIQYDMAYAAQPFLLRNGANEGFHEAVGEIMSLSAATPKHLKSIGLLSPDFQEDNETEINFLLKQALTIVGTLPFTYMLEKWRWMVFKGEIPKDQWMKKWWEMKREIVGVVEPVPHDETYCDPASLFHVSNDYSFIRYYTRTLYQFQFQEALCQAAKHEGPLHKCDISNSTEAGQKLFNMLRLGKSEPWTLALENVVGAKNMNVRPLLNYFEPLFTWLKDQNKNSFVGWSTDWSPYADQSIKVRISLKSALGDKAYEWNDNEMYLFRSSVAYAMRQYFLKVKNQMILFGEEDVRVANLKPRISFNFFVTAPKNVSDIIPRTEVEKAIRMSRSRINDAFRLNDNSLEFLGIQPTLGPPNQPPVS
Chain of human ACE2 (Q9BYF1 18-740): as the sequence (Q9BYF1 18-740, one chain of several) above

Compound	Tm Mean of RBD-ACE2 complex [1] [°C]	Kd (human ACE2) [mM]	also measured
[Ca+2].[Cl-].[Cl-] [CaCl2]	51.6	–	–
CC1=NN(c2ccc(C)c(C)c2)C(=O)/C1=N\Nc1cccc(-c2cccc(C(=O)O)c2)c1O [Eltrombopag]	49.9	0.000828	Rmax (human ACE2): 21.95 RU; Kd (SARS-CoV2 S2 ECD; KD): 2170 nM; Kd (SARS-CoV-2 S1 + S2 ECD): 2010 nM
CC1(C)[C@@H](O[C@H]2O[C@H](C(=O)O)[C@@H](O)[C@H](O)[C@H]2O[C@@H]2O[C@H](C(=O)O)[C@@H](O)[C@H](O)[C@H]2O)CC[C@]2(C)[C@H]3C(=O)C=C4[C@@H]5C[C@@](C)(C(=O)O)CC[C@]5(C)CC[C@@]4(C)[C@]3(C)CC[C@@H]12 [Glycyrrhizate, glycyrrhizate]	–	4.9	Rmax (human ACE2; listed as glycyrrhizate): 557.8 RU
CC1(C)[C@@H](O[C@H]2O[C@H](C(=O)O)[C@@H](O)[C@H](O)[C@H]2O[C@@H]2O[C@H](C(=O)O)[C@@H](O)[C@H](O)[C@H]2O)CC[C@]2(C)[C@H]3C(=O)C=C4[C@@H]5C[C@@](C)(C(=O)O)CC[C@]5(C)CC[C@@]4(C)[C@]3(C)CC[C@@H]12 [Glycyrrhizin, glycyrrhizin]	–	1.8	Rmax (human ACE2; listed as glycyrrhizin): 499.4 RU
[Cl-].[Cl-].[Mg+2] [MgCl2]	51.6	–	–
Glycyrrhizic acid	–	–	Rmax (SARS-CoV2 S2 ECD; pH 5.5): 623.7 RU
